{"source": "patent US5872141A", "about": "“Method of inhibiting cholesterol transport” (priority 1997, dated 1999)", "key": {"IEC-6 cells [1]": {"tested_on": "IEC-6 cells", "assay": "Specific steroid uptake from TDC-DMPC micelles by IEC-6 cells", "type": "cell-based, rat", "experimental": "There was less than 15% variation between duplicates. Under these conditions of incubation the monolayer remained intact.\nReferring to FIG. 1, monolayers on 12 well plates of IEC-6 cells were incubated for the indicated times at 37° C. with ^3 H-cholesterol (.circle-solid.), ^14 C-sitosterol (o), or ^3 H-cholesteryl oleate (.tangle-solidup.) in TDC-DMPC micelles as described above. The concentration (75 μM) and specific activity of the steroid was the same in all three conditions. After the desired incubation period, the media was removed, the monolayers were washed, the cells solubilized, and the amount of radioactivity incorporated into the cells was determined and plotted as counts per minute in the cells. […] At 60 minutes the cholesterol content of the cells was 2.7 times the sitosterol. Since sitosterol is closely related to cholesterol both chemically and physically, this indicated a biologically specific uptake. […] Thus, the IEC-6 cells were able to absorb specifically cholesterol from the mixed micelles."}, "[2]": {"assay": "Uptake of micellar steroid from isolated duodenum into mucosal homogenate", "type": "in vivo, rat", "experimental": "Fifty Wistar male rats were anesthetized with phenobarbital and a celiotomy was performed. The duodenum was isolated with ligatures of umbilical tape at the pylorus and the ligament of Treitz. One ml of a suspension of micelles containing ^3 H-cholesterol and ^14 C-sitosterol together with taurodeoxycholate (TDC) and dimyristic phosphatidyl choline (DMPC) (Safonova et al. 1994) were injected into the isolated duodenum of each rat. Following ten minutes incubation in the duodenum the gut loop was excised. The duodenum was opened lengthwise with iris scissors and mucosal contents were vigorously washed in two changes of 0.15M NaCl, 20 mM Hepes solution (pH 7.5). The mucosa was scraped free with a glass microscope slide and homogenized in a Virtis homogenizer for 5 minutes and 12 strokes in a Potter-Elvehjeim homogenizer as previously described (Conrad et al. 1993). […] Membranes were collected by centrifugation at 20,000×g for 20 minutes. Membrane proteins were extracted overnight at 4° C. in 1% Triton X 100 20 mM Hepes pH 7.5. The suspension was centrifuged at 20,000×g for 20 minutes. The solubilized material (70 ml) contained 70% of the radiolabeled cholesterol. The solubilized material was applied to a 240 ml column of DE-92 (Whatmann) equilibrated in 20 mM Hepes, 1% Triton X 100 pH 7.5 and eluted with a saline gradient. […]"}, "alkaline phosphatase": {"tested_on": "alkaline phosphatase", "settings": "levamisole 58 mM, pH 8.5, 30 minutes at 37° C., IEC-6 homogenate, FIG. 2", "experimental": "An incubation mixture of […] was prepared containing 0.1 ml of 500 mM Hepes pH 8.5, 25 mM MgCl2, 2.5 μM ZnCl2, and 0.5 ml of homogenate [1.0 mg/ml protein as determined by BCA method (Pierce, Rockford, Ill.)]. The indicated amount of p-nitrophenyl phosphate was added and the incubation allowed to proceed for 30 minutes at 37° C. To some of the tubes levamisole (58 mM) was added. After the incubation the absorption at 412 nm was determined."}, "IEC-6 cells [3]": {"tested_on": "IEC-6 cells", "settings": "32 mM levamisole, 60 minutes at 37° C., 20-60% sucrose gradient, FIG. 5", "protocol": "Two petri dishes (7.5 cm) with monolayers of IEC-6 cells were grown to confluence and used for each experiment. Each plate was washed in PBS and then incubated with 3 ml of PBS containing 120 μl of cholesterol micelles. In two parallel petri dishes an identical incubation was performed but with the addition of 32 mM levamisole. After 60 minutes incubation the dishes were chilled, washed four times with cold PBS and then harvested by scraping the dishes into 8 ml of 10 mM Hepes, 10 mM NaCl pH 7.4. The cells were homogenized using a Tissue-Tearor (Biospec Products, Bartlettsville, Okla.) at full speed for 30 seconds×3. The homogenate was layered on top of a 26 ml linear sucrose gradient from 20-60% (w/w). Centrifugation was performed over 18-20 hours at 19,000 rpm with a S-20 rotor in a Sorvall RC28S (DuPont, Wilmington, Del.) centrifuge. The tubes were punched from the bottom and 1 ml fractions collected. Standard methods were used to identify the membrane fractions (Storrie & Madden 1990) utilizing p-nitrophenyl-sugars and spectrophotometric analysis.\nReferring to FIG. 4, IEC-6 cells were incubated with ^3 H-cholesterol micelles for 60 minutes at 37° C., and then washed, homogenized, and separated on 20-60% sucrose gradients. The gradients were centrifuged to equilibrium. The location of various membrane fragments was determined by standard enzymatic methods (Storrie & Madden 1990). […]"}, "IEC-6 cells [4]": {"tested_on": "IEC-6 cells", "settings": "increasing concentrations of levamisole, 30 minutes at 37° C., FIG. 3", "protocol": "Radioisotopes were obtained from NEN (Billerca, Mass.) and other chemicals from Sigma (St. Louis, Mo.). ^3 H-cholesterol micelles were prepared from dimyristic phosphatidyl choline (DMPC) and taurodeoxycholate (TDC) as described by others (Safanova et al. 1994). The final solution contained 2.2×10^6 cpm/ml, 0.1 μM cholesterol, 60 mM DMPC and 6.5 mM TDC. Micelles with ^14 C-sitosterol or ^3 H-cholesteryl oleate were similarly prepared using the appropriate steroid and had the same specific activity. IEC-6 cells (Quaroni et al. 1979) obtained from the American Type Culture Collection (12301 Parklawn Drive, Rockville, Md.) were grown to confluence on 12-well Corning tissue culture plates. The media was removed and the monolayers were washed with phosphate buffered saline containing calcium, magnesium, and glucose (PBS). One ml of PBS was added to each well and 40 μl of the micellar solution (for a final steroid concentration of 4 nM). After incubation at 37° C., the plates were chilled and the wells washed four times in cold PBS. Water (0.5 ml) was added, and the plates were sonicated for 15 minutes (Branson model B-220, Shelton, Conn.) and then washed in an additional 0.5 ml of water. The water lysates were combined and counted in Ready-Safe (Beckman, Fullerton, Calif.) scintillation fluid. There was less than 15% variation between duplicates. […]"}}, "note": "Where two headings read alike, the source gives them in different places."}
{"smiles": "CCCCCCCC/C=C\\CCCCCCCC(=O)O[C@H]1CC[C@@]2(C)C(=CC[C@H]3[C@@H]4CC[C@H]([C@H](C)CCCC(C)C)[C@@]4(C)CC[C@@H]32)C1", "note": "[Cholesterol ester, cholesteryl oleate]", "values": [{"measurement": "uptake by IEC-6 cells", "setting": "IEC-6 cells [1]", "value": "poorly absorbed"}]}
{"smiles": "CC(C)CCC[C@@H](C)[C@H]1CC[C@H]2[C@@H]3CC=C4C[C@@H](O)CC[C@]4(C)[C@H]3CC[C@]12C", "note": "[cholesterol]", "values": [{"measurement": "uptake by IEC-6 cells", "setting": "IEC-6 cells [1]", "value": "linear for at least an hour"}, {"measurement": "total uptake into the homogenate, % of added steroid", "setting": "[2]; rat, in vivo, 10 min", "value": 16, "unit": "%"}]}
{"smiles": "c1ccc([C@H]2CN3CCSC3=N2)cc1", "note": "[levamisole, 2,3,5,6-tetrahydro-6-phenylimidazo-[2,1-b]thiazole]", "values": [{"measurement": "alkaline phosphatase activity inhibition (mode)", "setting": "alkaline phosphatase", "value": "competitively inhibited"}, {"measurement": "subcellular location of 3H-cholesterol label", "setting": "IEC-6 cells [3]", "value": "majority of the label was found in the plasma membrane fraction (P)"}, {"measurement": "effect of increasing drug concentration on cholesterol uptake", "setting": "IEC-6 cells [4]", "value": "did not result in complete inhibition of uptake"}, {"measurement": "cholesterol uptake inhibited", "setting": "IEC-6 cells [4]; maximal inhibition", "value": "Approximately 50%"}]}
{"smiles": "CC[C@H](CC[C@@H](C)[C@H]1CC[C@H]2[C@@H]3CC=C4C[C@@H](O)CC[C@]4(C)[C@H]3CC[C@]12C)C(C)C", "note": "[sitosterol]", "values": [{"measurement": "uptake by IEC-6 cells", "setting": "IEC-6 cells [1]; 37° C., TDC-DMPC micelles, FIG. 1, cholesterol ester without added pancreatic cholesterol esterase", "value": "incorporated much less efficiently"}, {"measurement": "total uptake into the homogenate, % of added steroid", "setting": "[2]; rat isolated duodenum, micelles with TDC and DMPC, ten minutes incubation", "value": 2, "unit": "%"}]}
